Results as given in US10675258B2, “Method of using gamma-hydroxybutyrate compositions for the treatment of disorders” (Jazz Pharmaceuticals Ireland Limited, priority 2012, dated 2020).

Experiments:
[1] = Maximum solubility of GHB as a function of pH of the aqueous medium; format: physicochemical
Experimental: It will be understood that the maximum solubility of GHB is affected by the pH of the aqueous medium. For example, at about pH 4, the maximum amount of Na•GHB that can be dissolved is about 450 mg/ml.

[2] = Chemical stability of GHB as a function of pH (GBL formation); conditions: aqueous GHB compositions

O=C([O-])CCCO.[Na+] [Na•GHB, sodium gamma-hydroxybutyrate]
maximum amount that can be dissolved ([1]; aqueous medium at about pH 4): about 450 mg/ml

O=C(O)CCCO [GHB, gamma-hydroxybutyrate]
pH at which GBL begins to form [2]: ≤ 6 | minimal pH that will dissolve 750 mg/ml GHB ([1]; 750 mg/ml GHB, aqueous medium): ~6.8
